Experiments:
[1] = test system: phenylbenzoquinone-induced stretching or twisting movements (writhing syndrome); assay: Siegmund test (analgesic action; phenylbenzoquinone writhing syndrome); type: in vivo; conditions: mouse, 300 mg/kg PO, 30 minutes before phenylbenzoquinone, protected = less than five stretching movements in 5 minutes
Experimental: Reference: […], E. A.: CADMUS, R. A.: GOLU: "A Method for evaluating both non-narcotic and narcotic Analgesics." Pro. Soc. Exp. Biol., 1957, b, 95, 729-731.
Principle: Injection of an irritant, phenylbenzoquinone (in 0.02% solution), into the peritoneum of a mouse, determination of the stretching or twisting movements (writhing syndrome), whose frequency is diminished by the preventive administration of analgesic.
The substances were given orally 30 minutes before injection of the irritant. The number of stretching movements between the 5th and 10th minute after injection of phenylbenzoquinone were counted. The percentage of animals protected was calculated. A mouse was considered protected if it executed less than five stretching movements in 5 minutes.

in vivo = conditions: mouse, po
[2] = test system: femoral arterial pressure and cardiac contractile force; assay: Cardiovascular action in a dog anaesthetised with chloralose; type: in vivo
Experimental: This action was studied in a dog, anaesthetised with chloralose, its reflexogenic, cardioaortic and sinocarotidian zones being intact (normotense dog), or denervated (hypertense dog). The product to be tested was injected in the saphena vein, and the femoral arterial pressure and cardiac contractile force were recorded.

mouse = conditions: for DL 50: per os, species not given
[3] = Mucolytic action: measurement of the fluidising action of the bronchial secretion (microviscosimeter of the BROOKFIELD type); conditions: for Percentage diminution of viscosity: 37° C.
Experimental: Mucolytic action: measurement of the fluidising action of the bronchial secretion.
The study of the viscosity of an expectoration is effected in vitro. In order to measure viscosity, a microviscosimeter of the BROOKFIELD type is used. With the aid of this apparatus, the resistant couple exerted on a rotor is determined. This rotor, submerged in the liquid whose viscosity is to be measured, rotates at a known constant speed.
1.5 ml of secretion, taken to ambient temperature, was poured into a container of the viscosimeter. After 4 minutes, the temperature of the expectoration was balanced at 37° C., then the motor of the apparatus was started for 5 minutes, after which measurement was effected.
Three rotor speeds were used:
1.5 r.p.m.; 3 r.p.m., and 6 r.p.m.
The three speeds were used for each test. Firstly, the viscosity of the pure expectoration was measured, then that of the expectoration to which had been added one drop of distilled water as a solvent, and whose retained values were later used as witness values, or placebo values.
Thereafter, 1.5 ml of secretion had added to it a drop of the product at the first aqueous concentration envisaged.
The viscosity was measured at the three rotary speeds of the rotor. The same operation was repeated at the following concentrations; 1 mg/ml; 2 mg/ml and 5 mg/ml.
The reference substance was mercapto-ethane sulfonate of sodium or MISTABRON (M.E.S. Na). This substance had been studied under the same experimental conditions at a concentration of 200 mg/ml.

**Q.** Which “% of animals protected” value ([1]; 300 mg/kg) does the source give for `O=C(O)CSCCC1NC(C(=O)O)CS1` (stereo not shown) [Compound No. 4, 4-carboxy-thiazolidinyl-2-ethyl mercapto acetic acid] here?
**A.** 40%

**Q.** What about the LD50 (in vivo) of the same compound?
**A.** > 1200 mg/kg

**Q.** Which “% of animals protected” value ([1]; 300 mg/kg) does the source give for `O=C(O)CSCCC1NC(C(=O)O)CS1` (stereo not shown) [Compound No. 5, 4-carboxy thiazolidinyl 2-ethyl mercapto acetate of di(diisopropylamine)] here?
**A.** 20%

**Q.** What about the “antihypertensive and hypotensive action (in words)” value ([2]; intravenous, 10 mg/kg) of the same compound?
**A.** antihypertensive and hypotensive

**Q.** What about the “Acute Toxicity mouse PO” value (mouse) of the same compound?
**A.** > 1200 mg/kg

**Q.** And the “DL 50” value (mouse)?
**A.** > 1200 mg/kg

**Q.** For `CCOC(=O)CSCCC1NC(C(=O)O)CS1` (stereo not shown) [Compound No. 8, 2-[(Ethoxycarbonylmethylthio)-ethyl] thiazolidine 4-carboxylate of diisopropylamine], which “Percentage diminution of viscosity” value ([3]; 1 mg/ml, rotor speed V = 1.5 r.p.m.) is on record?
**A.** 58%

**Q.** And the “Percentage diminution of viscosity” value ([3]; 1 mg/ml, rotor speed V = 3 r.p.m.)?
**A.** 55%

**Q.** What about the “Percentage diminution of viscosity” value ([3]; 1 mg/ml, rotor speed V = 6 r.p.m.) of the same compound?
**A.** 46%

**Q.** What about the “Percentage diminution of viscosity” value ([3]; 2 mg/ml, rotor speed V = 1.5 r.p.m.) of the same compound?
**A.** 60%

**Q.** What about the “Percentage diminution of viscosity” value ([3]; 2 mg/ml, rotor speed V = 3 r.p.m.) of the same compound?
**A.** 57%

**Q.** And the “Percentage diminution of viscosity” value ([3]; 2 mg/ml, rotor speed V = 6 r.p.m.)?
**A.** 47.5%

**Q.** And the “Percentage diminution of viscosity” value ([3]; 5 mg/ml, rotor speed V = 1.5 r.p.m.)?
**A.** 71%

**Q.** And the “Percentage diminution of viscosity” value ([3]; 5 mg/ml, rotor speed V = 3 r.p.m.)?
**A.** 62%

**Q.** And the “Percentage diminution of viscosity” value ([3]; 5 mg/ml, rotor speed V = 6 r.p.m.)?
**A.** 58%

**Q.** What about the “mucolytic action versus reference M.E.S. Na (in words)” value ([3]; in accordance with the doses used (1, 2, 5 mg/ml vs 200 mg/ml M.E.S. Na)) of the same compound?
**A.** comparable with and even superior to the reference substance

**Q.** For `O=C(O)C1CSC(CCSCc2nc3ccccc3[nH]2)N1` (stereo not shown) [Compound No. 10, 2-[2-(benzimidazolylmethyl)-2-thioethyl]-thiazolidine 4-carboxylic acid], which “cardiostimulant properties (in words)” value ([2]; saphena vein injection, 20 mg/kg) is on record?
**A.** clear cardiostimulant properties

**Q.** What about the “DL 50” value (mouse) of the same compound?
**A.** > 1200 mg/kg

**Q.** For `O=S(=O)(O)CCS` [M.E.S. Na, mercapto-ethane sulfonate of sodium, reference compound], which “Percentage diminution of viscosity” value ([3]; 200 mg/ml, rotor speed V = 1.5 r.p.m.) is on record?
**A.** 66%

**Q.** And the “Percentage diminution of viscosity” value ([3]; 200 mg/ml, rotor speed V = 3 r.p.m.)?
**A.** 65%

**Q.** What about the “Percentage diminution of viscosity” value ([3]; 200 mg/ml, rotor speed V = 6 r.p.m.) of the same compound?
**A.** 55%

**Q.** For `O=C(O)CSCCC1NC(C(=O)O)CS1` (stereo not shown) [compound 6, 4-carboxy thiazolidinyl 2-ethyl mercapto arginine acetate], which “% of animals protected” value ([1]; acetate, 300 mg/kg) is on record?
**A.** 20%

**Q.** And the “Acute Toxicity mouse PO” value (mouse)?
**A.** > 1200 mg/kg

**Q.** What does the source list for `O=C(O)C1CSC(CCSc2nc3ncccc3o2)N1` (stereo not shown) [compound 11, 2-(2-pyridoxazolyl-2-thioethyl)thiazolidine 4-carboxylic acid]?
**A.** % of animals protected [1]: 20%; LD50 (in vivo): > 1200 mg/kg

Reference: patent US4032534A, “Certain 2-(2-thioethyl)thiazolidine-4-carboxylic acids” (Ferlus-Chimie S.A., priority 1973, dated 1977)
